Reference: ChEMBL document CHEMBL4765455, “Design, synthesis, and biological evaluations of novel 3-amino-4-ethynyl indazole derivatives as Bcr-Abl kinase inhibitors with potent cellular antileukemic activity” (Eur J Med Chem, 2020)

Legend:
[1] = Selectivity index, ratio of GI50 for human HL60(TB) cells to GI50 for human K562 cells; type: functional
[2] = molecular target: Receptor-type tyrosine-protein kinase FLT3 (Homo sapiens) (UniProt P36888); assay: Inhibition of FLT3 (unknown origin) at 1 uM relative to control
[3] = test system: HL-60(TB); assay: Antiproliferative activity against human HL-60(TB) cells assessed as cell growth inhibition at 10 uM measured after 48 hrs by SRB assay relative to control; type: functional; details: read-out: GI
[4] = molecular target: T1, Proto-oncogene tyrosine-protein kinase Src (Homo sapiens, UniProt P12931); assay: Inhibition of c-Src (unknown origin) at 1 uM relative to control
T1 sequence (P12931 2-536 limits assumed): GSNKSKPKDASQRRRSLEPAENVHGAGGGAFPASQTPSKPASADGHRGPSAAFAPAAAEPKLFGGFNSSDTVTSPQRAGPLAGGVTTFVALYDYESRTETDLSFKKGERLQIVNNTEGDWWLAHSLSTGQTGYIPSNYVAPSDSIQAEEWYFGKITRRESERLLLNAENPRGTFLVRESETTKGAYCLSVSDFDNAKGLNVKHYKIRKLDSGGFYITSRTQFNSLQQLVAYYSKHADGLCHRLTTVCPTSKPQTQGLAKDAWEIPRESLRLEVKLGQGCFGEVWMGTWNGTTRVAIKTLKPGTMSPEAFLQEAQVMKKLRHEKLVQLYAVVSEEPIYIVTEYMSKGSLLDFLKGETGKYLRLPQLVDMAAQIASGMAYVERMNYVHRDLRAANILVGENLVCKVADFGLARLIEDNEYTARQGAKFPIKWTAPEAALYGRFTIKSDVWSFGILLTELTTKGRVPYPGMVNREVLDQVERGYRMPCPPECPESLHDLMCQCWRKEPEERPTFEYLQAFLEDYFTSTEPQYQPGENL

[5] = molecular target: Proto-oncogene tyrosine-protein kinase ROS (Homo sapiens) (UniProt P08922); assay: Inhibition of ROS/ROS1 (unknown origin) at 1 uM relative to control
[6] = molecular target: Tyrosine-protein kinase ABL1 (Homo sapiens, UniProt P00519); assay: Inhibition of NanoLuc-fused ABL1 (unknown origin) expressed in human HEK293 cells incubated for 2 to 3 mins by NanoBRET assay; type: cell-based
[7] = test system: K562; assay: Antiproliferative activity against human K562 cells assessed as cell growth inhibition measured after 48 hrs by SRB assay; type: functional
[8] = Oral bioavailability in ICR mouse at 10 mg/kg measured up to 8 hrs by LC-MS/MS analysis; type: ADME, organism-based; details: in vivo
[9] = AUClast in ICR mouse at 10 mg/kg, po measured up to 8 hrs by LC-MS/MS analysis; type: ADME, organism-based; parameters: route oral, dose 10 mg/kg, time <=8; details: in vivo
[10] = molecular target: Aurora kinase A (Homo sapiens) (UniProt O14965); assay: Inhibition of Aurora A (unknown origin) at 1 uM relative to control
[11] = molecular target: Insulin-like growth factor 1 receptor (Homo sapiens) (UniProt P08069); assay: Inhibition of IGF1R (unknown origin) at 1 uM relative to control
[12] = molecular target: Hepatocyte growth factor receptor (Homo sapiens) (UniProt P08581); assay: Inhibition of c-MET (unknown origin) at 1 uM relative to control
[13] = molecular target: Serine/threonine-protein kinase PLK1 (Homo sapiens) (UniProt P53350); assay: Inhibition of PLK1 (unknown origin) at 1 uM relative to control
[14] = molecular target: Macrophage colony-stimulating factor 1 receptor (Homo sapiens, UniProt P07333); assay: Inhibition of FMS (unknown origin) in presence of ATP
Sequence of Macrophage colony-stimulating factor 1 receptor (P07333 whole entry): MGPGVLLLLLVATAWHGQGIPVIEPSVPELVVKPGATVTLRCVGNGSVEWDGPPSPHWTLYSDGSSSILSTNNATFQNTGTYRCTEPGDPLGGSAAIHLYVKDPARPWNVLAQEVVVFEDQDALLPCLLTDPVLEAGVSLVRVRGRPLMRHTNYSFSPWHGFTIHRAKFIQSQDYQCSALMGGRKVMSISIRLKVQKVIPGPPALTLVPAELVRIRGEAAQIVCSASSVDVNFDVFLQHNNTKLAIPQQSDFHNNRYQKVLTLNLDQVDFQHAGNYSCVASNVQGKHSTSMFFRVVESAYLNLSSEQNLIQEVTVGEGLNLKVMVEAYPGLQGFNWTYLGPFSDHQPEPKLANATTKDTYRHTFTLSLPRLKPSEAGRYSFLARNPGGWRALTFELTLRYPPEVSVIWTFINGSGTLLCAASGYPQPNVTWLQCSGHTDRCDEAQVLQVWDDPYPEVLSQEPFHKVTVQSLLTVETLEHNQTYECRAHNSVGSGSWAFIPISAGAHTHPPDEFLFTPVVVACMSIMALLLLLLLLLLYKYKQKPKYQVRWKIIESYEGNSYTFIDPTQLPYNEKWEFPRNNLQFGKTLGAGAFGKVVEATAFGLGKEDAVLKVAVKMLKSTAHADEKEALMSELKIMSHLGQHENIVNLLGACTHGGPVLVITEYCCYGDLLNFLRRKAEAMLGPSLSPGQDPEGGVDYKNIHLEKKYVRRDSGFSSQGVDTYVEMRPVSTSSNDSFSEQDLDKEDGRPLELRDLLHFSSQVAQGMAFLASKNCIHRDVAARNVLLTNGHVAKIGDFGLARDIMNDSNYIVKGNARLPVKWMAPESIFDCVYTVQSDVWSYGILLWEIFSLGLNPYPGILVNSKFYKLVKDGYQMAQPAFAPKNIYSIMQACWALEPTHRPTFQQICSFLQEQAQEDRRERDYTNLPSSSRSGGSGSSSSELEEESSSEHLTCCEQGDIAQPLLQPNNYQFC

[15] = Mean residence time in ICR mouse at 10 mg/kg, po measured up to 8 hrs by LC-MS/MS analysis; type: ADME, organism-based; details: in vivo
[16] = species: Homo sapiens; assay: Selectivity index, ratio of IC50 for FMS (unknown origin) to IC50 for Bcr-Abl (unknown origin)
[17] = molecular target: Dual specificity mitogen-activated protein kinase kinase 1 (Homo sapiens) (UniProt Q02750); assay: Inhibition of MEK1 (unknown origin) at 1 uM relative to control
Sequence of Dual specificity mitogen-activated protein kinase kinase 1 (Homo sapiens) (Q02750 whole entry): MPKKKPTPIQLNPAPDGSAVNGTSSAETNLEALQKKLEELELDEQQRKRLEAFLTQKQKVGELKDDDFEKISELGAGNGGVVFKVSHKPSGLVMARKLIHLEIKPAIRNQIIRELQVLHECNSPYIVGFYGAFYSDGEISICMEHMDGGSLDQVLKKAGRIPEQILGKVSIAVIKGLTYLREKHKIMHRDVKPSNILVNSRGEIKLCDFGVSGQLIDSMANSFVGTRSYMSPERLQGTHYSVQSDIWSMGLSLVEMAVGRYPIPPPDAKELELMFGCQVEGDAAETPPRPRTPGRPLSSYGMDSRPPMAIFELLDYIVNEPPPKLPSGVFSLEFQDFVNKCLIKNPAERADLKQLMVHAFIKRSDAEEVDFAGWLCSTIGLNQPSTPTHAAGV

[18] = test system: K562; assay: Antiproliferative activity against human K562 cells assessed as cell growth inhibition at 10 uM measured after 48 hrs by SRB assay relative to control; type: functional; details: read-out: GI
[19] = Volume of distribution at steady state in ICR mouse at 5 mg/kg, iv measured up to 8 hrs by LC-MS/MS analysis; type: ADME, organism-based; details: in vivo, read-out: Vdss
[20] = molecular target: Serine/threonine-protein kinase Chk1 (Homo sapiens) (UniProt O14757); assay: Inhibition of CHK1 (unknown origin) at 1 uM relative to control
Sequence of Serine/threonine-protein kinase Chk1 (Homo sapiens) (O14757 whole entry): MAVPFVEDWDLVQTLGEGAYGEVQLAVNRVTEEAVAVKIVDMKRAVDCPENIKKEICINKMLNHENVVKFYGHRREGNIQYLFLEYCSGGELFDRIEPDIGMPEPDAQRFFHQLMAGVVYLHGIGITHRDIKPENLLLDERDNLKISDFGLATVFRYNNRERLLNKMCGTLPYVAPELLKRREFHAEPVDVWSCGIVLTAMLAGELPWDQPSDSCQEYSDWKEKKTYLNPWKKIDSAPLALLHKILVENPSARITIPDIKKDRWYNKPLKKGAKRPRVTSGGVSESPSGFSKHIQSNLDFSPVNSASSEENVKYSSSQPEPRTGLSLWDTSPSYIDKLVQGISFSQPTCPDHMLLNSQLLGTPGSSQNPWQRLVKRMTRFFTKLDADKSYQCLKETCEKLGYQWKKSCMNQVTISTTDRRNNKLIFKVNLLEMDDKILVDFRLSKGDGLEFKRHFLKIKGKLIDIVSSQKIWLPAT

[21] = test system: MOLT-4; assay: Antiproliferative activity against human MOLT-4 cells assessed as cell growth inhibition measured after 48 hrs by SRB assay; type: functional
[22] = molecular target: Cyclin-dependent kinase 4/cyclin D1 (Homo sapiens) (UniProt P11802+P24385); assay: Inhibition of CDK4/cyclinD1 (unknown origin) at 1 uM relative to control; type: protein-complex assay
[23] = molecular target: Rho-associated protein kinase 1 (Homo sapiens) (UniProt Q13464); assay: Inhibition of ROCK1 (unknown origin) at 1 uM relative to control
[24] = species: Homo sapiens; assay: Selectivity index, ratio of IC50 for c-Src (unknown origin) to IC50 for Bcr-Abl (unknown origin)
[25] = Half life in ICR mouse at 10 mg/kg, po measured up to 8 hrs by LC-MS/MS analysis; type: ADME, organism-based; details: in vivo
[26] = Half life in ICR mouse at 5 mg/kg, iv measured up to 8 hrs by LC-MS/MS analysis; type: ADME, organism-based; details: in vivo
[27] = test system: RPMI-8226; assay: Antiproliferative activity against human RPMI-8226 cells assessed as cell growth inhibition at 10 uM measured after 48 hrs by SRB assay relative to control; type: functional; details: read-out: GI
[28] = test system: MOLT-4; assay: Antiproliferative activity against human MOLT-4 cells assessed as cell growth inhibition at 10 uM measured after 48 hrs by SRB assay relative to control; type: functional; details: read-out: GI
[29] = molecular target: T2, Serine/threonine-protein kinase B-raf (Homo sapiens, UniProt P15056); assay: Inhibition of BRAF (unknown origin) at 1 uM relative to control
T2 sequence (P15056 whole entry): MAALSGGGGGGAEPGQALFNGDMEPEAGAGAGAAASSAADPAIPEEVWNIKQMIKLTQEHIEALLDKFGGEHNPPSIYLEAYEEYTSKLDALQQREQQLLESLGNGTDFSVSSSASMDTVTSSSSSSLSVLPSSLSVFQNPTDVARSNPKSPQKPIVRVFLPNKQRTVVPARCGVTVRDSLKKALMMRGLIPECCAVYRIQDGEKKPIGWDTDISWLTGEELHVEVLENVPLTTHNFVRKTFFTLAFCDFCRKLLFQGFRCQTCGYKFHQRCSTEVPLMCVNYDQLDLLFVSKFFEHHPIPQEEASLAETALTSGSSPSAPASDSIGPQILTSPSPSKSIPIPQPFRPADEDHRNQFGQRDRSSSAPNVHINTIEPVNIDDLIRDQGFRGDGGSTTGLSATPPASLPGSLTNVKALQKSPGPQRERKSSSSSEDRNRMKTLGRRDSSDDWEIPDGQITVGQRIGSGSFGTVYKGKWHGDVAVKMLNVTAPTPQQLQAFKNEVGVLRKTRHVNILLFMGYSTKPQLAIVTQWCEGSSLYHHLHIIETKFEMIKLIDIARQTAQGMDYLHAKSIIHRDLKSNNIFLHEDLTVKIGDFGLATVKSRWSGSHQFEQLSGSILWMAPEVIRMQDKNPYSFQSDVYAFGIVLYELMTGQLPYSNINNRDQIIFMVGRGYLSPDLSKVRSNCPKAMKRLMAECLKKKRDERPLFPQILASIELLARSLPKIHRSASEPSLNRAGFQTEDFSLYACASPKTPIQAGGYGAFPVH

[30] = molecular target: High affinity nerve growth factor receptor (Homo sapiens) (UniProt P04629); assay: Inhibition of TRKA (unknown origin) at 1 uM relative to control
[31] = test system: SR; assay: Antiproliferative activity against human SR cells assessed as cell growth inhibition measured after 48 hrs by SRB assay; type: functional
[32] = AUClast in ICR mouse at 5 mg/kg, iv measured up to 8 hrs by LC-MS/MS analysis; type: ADME, organism-based; parameters: route intravenous, dose 5 mg/kg, time <=8; details: in vivo
[33] = molecular target: T1, Proto-oncogene tyrosine-protein kinase Src; assay: Inhibition of c-Src (unknown origin) in presence of ATP
[34] = Antiproliferative activity against human L132 cells assessed as cell growth inhibition incubated for 72 hrs by MTT assay; type: cell-based
[35] = molecular target: Bcr/Abl fusion protein (Homo sapiens, UniProt P00519, T315I); assay: Inhibition of BCR-ABL T315I mutant (unknown origin) incubated for 40 mins in presence of [gamma33P]ATP by scintillation method; type: protein assay
[36] = test system: RPMI-8226; assay: Antiproliferative activity against human RPMI-8226 cells assessed as cell growth inhibition measured after 48 hrs by SRB assay; type: functional
[37] = Clearance in ICR mouse at 5 mg/kg, iv measured up to 8 hrs by LC-MS/MS analysis; type: ADME, organism-based; details: in vivo
[38] = molecular target: T2, Serine/threonine-protein kinase B-raf; assay: Inhibition of BRAF (unknown origin) in presence of ATP
[39] = test system: CCRF-CEM; assay: Antiproliferative activity against human CCRF-CEM cells assessed as cell growth inhibition at 10 uM measured after 48 hrs by SRB assay relative to control; type: functional; details: read-out: GI
[40] = test system: HL-60(TB); assay: Antiproliferative activity against human HL-60(TB) cells assessed as cell growth inhibition measured after 48 hrs by SRB assay; type: functional
[41] = test system: SR; assay: Antiproliferative activity against human SR cells assessed as cell growth inhibition at 10 uM measured after 48 hrs by SRB assay relative to control; type: functional; details: read-out: GI
[42] = molecular target: Serine/threonine-protein kinase pim-1 (Homo sapiens) (UniProt P11309); assay: Inhibition of PIM1 (unknown origin) at 1 uM relative to control
Sequence of Serine/threonine-protein kinase pim-1 (Homo sapiens) (P11309 whole entry, looked up): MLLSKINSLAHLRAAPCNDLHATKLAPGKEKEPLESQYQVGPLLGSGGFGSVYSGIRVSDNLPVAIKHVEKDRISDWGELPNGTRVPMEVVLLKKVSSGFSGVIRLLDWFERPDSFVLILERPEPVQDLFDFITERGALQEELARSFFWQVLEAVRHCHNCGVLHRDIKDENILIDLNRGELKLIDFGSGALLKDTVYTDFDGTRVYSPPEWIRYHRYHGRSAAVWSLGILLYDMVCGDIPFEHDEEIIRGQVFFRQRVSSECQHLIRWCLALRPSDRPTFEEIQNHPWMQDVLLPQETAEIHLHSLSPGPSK

[43] = molecular target: Death-associated protein kinase 1 (Homo sapiens) (UniProt P53355); assay: Inhibition of DAPK1 (unknown origin) at 1 uM relative to control
Sequence of Death-associated protein kinase 1 (Homo sapiens) (P53355 whole entry, looked up): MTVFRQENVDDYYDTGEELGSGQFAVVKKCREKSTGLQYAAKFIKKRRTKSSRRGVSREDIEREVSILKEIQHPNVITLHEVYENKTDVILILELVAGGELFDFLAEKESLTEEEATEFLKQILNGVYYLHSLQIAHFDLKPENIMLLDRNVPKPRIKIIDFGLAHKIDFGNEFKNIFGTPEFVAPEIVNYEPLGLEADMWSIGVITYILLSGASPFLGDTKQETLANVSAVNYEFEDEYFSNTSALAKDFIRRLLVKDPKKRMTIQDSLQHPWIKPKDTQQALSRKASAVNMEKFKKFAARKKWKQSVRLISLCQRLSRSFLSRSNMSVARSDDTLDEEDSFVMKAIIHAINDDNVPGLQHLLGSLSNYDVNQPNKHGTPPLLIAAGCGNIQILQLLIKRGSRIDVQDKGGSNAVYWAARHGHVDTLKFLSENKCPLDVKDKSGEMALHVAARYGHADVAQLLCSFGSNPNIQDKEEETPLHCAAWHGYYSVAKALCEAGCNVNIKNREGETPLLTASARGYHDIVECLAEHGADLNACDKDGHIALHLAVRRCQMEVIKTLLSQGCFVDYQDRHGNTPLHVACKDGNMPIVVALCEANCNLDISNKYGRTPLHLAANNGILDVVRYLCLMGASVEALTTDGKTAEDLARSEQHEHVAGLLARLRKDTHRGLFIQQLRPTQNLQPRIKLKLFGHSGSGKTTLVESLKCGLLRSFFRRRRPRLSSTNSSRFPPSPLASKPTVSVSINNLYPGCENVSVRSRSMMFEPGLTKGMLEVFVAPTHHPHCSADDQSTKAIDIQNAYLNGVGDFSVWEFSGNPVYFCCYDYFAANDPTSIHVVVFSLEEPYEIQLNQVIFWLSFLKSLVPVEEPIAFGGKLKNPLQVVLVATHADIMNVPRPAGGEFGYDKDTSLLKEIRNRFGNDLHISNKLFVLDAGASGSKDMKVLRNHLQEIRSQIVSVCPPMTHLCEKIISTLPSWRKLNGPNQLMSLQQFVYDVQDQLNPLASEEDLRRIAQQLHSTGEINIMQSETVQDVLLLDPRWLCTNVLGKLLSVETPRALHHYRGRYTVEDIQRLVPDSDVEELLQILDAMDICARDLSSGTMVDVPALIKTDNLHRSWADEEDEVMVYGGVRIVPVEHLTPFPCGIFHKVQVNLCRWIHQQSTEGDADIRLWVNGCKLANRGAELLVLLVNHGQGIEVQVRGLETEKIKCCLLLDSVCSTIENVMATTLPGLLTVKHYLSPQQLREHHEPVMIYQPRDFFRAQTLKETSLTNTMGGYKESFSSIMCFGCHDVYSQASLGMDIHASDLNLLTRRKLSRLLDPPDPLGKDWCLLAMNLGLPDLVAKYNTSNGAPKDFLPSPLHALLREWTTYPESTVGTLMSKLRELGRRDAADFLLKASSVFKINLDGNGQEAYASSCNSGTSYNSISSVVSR

`Nc1n[nH]c2cccc(C#Cc3cccc(NC(=O)c4ccc(N5CCOCC5)c(C(F)(F)F)c4)c3)c12` gave a RatioGI50 [1] of 140, an inhibition [2] of 87.8% and an inhibition of growth at 10 µM [3] of 98%. For the same molecule, the inhibition [4] was 87.8%, the inhibition [5] was under 30% and the EC50 [6] was 14.6 nM. It also gave a GI50 [7] of under 10 nM, a bioavailability [8] of 0.6% and an AUC(0-t) at 8 h [9] of 175 ng·h/mL. For the same molecule, the inhibition [10] was 43.4%, the inhibition [11] was under 30% and the inhibition [12] was 43.4%. For the same molecule, the inhibition [13] was under 30%, the IC50 [14] was 16.2 nM and the MRT [15] was 1.3 h. The Ratio IC50 [16] was 3.5, the inhibition [17] was under 30% and the inhibition of growth at 10 µM [18] was 99%. The Vd [19] was 1.4 L/kg, the inhibition [20] was under 30% and the GI50 [21] was 1310 nM. The inhibition [22] was under 30%, the inhibition [23] was under 30% and the Ratio IC50 [24] was 14.3. It also gave a half-life [25] of 0.7 h, a half-life [26] of 3.5 h and an inhibition of growth at 10 µM [27] of over 100%. For the same molecule, the inhibition of growth at 10 µM [28] was 92.3%, the inhibition [29] was 87.8% and the inhibition [30] was under 30%. The GI50 [31] was 2400 nM, the AUC(0-t) at 8 h [32] was 14000 ng·h/mL and the IC50 [33] was 66 nM. For the same molecule, the GI50 at 72 h [34] was 9270 nM, the IC50 [35] was 227 nM and the GI50 [36] was 1980 nM. The clearance [37] was 5 mL/min/kg, the IC50 [38] was 122 nM and the inhibition of growth at 10 µM [39] was 89.5%. It also gave a GI50 [40] of 1400 nM, an inhibition of growth at 10 µM [41] of 87.4% and an inhibition [42] of under 30%. For the same molecule, the inhibition [43] was under 30%.
